Reference: patent US20230381275A1, “MUSCULAR FUNCTION IMPROVING AGENT FOR SKELETAL MUSCLE OF WHICH FUNCTION IS DEGRADED DUE TO AGING” (OSAKA UNIVERSITY, priority 2020, published 2023)

What was measured:
[1] = tested on: aging-accelerated model mice (SAMP10); assay: Endurance evaluation test on treadmill, mean running distance (Example 4); format: in vivo
Description: In this example, we evaluated exercise in aging-accelerated model mice when SV peptide was administered continuously.
(§1) Aging-accelerated model mice (SAMP10 28 weeks old) were trained on a treadmill (MK-680; Muromachi Kikai Co., Ltd.) (18 m/min×90 min) and subsequent SV peptide administration was performed according to the schedule in the following table. After 30 weeks of age, training was performed continuously from Monday to Friday of each week. SV peptides were added to PBS to adjust to a concentration of 1 μg/ml or 20 ng/ml for injection formulation. Localized injections were made into the bilateral leg muscles of each mouse anesthetized by inhalation with sevoflurane immediately after training on Tuesday and Friday (SV group). Exercise evaluations were performed after SV peptide localization on Friday.
Exercise evaluations were conducted for endurance evaluation, in which the belt speed on the treadmill was increased incrementally at regular intervals, and for slope-up evaluation, in which the belt incline was increased incrementally at regular intervals. […] In the PBS group as the control group, PBS was localized to the bilateral lower limb muscles instead of SV peptide after training on the treadmill in the same manner as in the SV group.
The results of the endurance evaluation test are shown in FIG. 5 as a graph of the percent change in mean running distance. […] The mean running distance for each group was calculated as the mean value of running distance calculated based on the running time and speed of each mouse in each group (the mean distance was calculated in the same manner hereinafter). […] In the SVN group (SVN group) in which SV peptide was administered at the same site and at the same dose as in the SV group without training on the treadmill, the rate of change in mean running distance was measured.

[2] = tested on: aging-accelerated model mice (SAMP10); assay: Mean cross-sectional area of muscle fibers, HE staining, 40-week-old mice (Example 3); format: in vivo; conditions: 40-week-old SAMP10 mice; treadmill training plus SV peptide 20 ng/ml; vs PBS control; FIG. 3B
Description: In this example, we evaluated muscle fibers in aging-accelerated model mice after continuous administration of SV peptide.
Aging-accelerated model mice (SAMP10 21 weeks old) were trained on a treadmill (MK-680; Muromachi Kikai Co., Ltd.) (18 m/min×90 min) and subsequent SV peptide administration was performed according to the same schedule as in Example 1. After 36 weeks of age, training on the treadmill and subsequent SV peptide administration were conducted under the same conditions as at 35 weeks of age, and continued until the aging-accelerated model mice reached 40 weeks of age. In the control group, after training under the same conditions as the experimental group, PBS was injected into the bilateral lower limb muscles instead of SV peptide.
The gastrocnemius and soleus muscles of the lower limbs were then removed from 40-week-old aging-accelerated model mice, sections were prepared according to the standard method, and HE staining was performed.

[3] = tested on: aging-accelerated model mice (SAMP10); assay: Exercise evaluation on treadmill, mean workload (Example 4); format: in vivo; conditions: SV-treated group (training and SV peptide) relative to PBS group; FIG. 6
Description: as §1
Exercise evaluations were conducted for endurance evaluation, in which the belt speed on the treadmill was increased incrementally at regular intervals, and for slope-up evaluation, in which the belt incline was increased incrementally at regular intervals. […]
The mean workload was calculated as the mean value of workload calculated by multiplying body weight, running time, slope (grade), running speed, and gravitational acceleration g(9.8 m/s^2) for each mouse in each group by […].

[4] = tested on: aging-accelerated model mice; assay: Endurance evaluation test on treadmill (Example 6); format: in vivo; conditions: SV group, SV peptide 2 μg/ml one dose every other week plus training
Description: In this example, the number of SV peptide doses and dosage in Example 4 was changed as shown in the following table, and exercise evaluation (endurance evaluation) was performed when SV peptide was continuously administered to aging-accelerated model mice. The conditions other than the number of SV peptide doses and dosage were the same as in Example 4.
Specifically, SV peptide was added to PBS to adjust to a concentration of 2 μg/ml for the injectable formulation, and localized to the bilateral lower limb muscles of each mouse anesthetized by inhalation with sevoflurane immediately after training on Friday every other week (even weeks) (SV group; one dose every other week).
The results of the endurance evaluation test are shown in FIG. 12 with a graph showing the mean running distance for the SV group (n=3) and the PBS group (n=4). A graph showing the difference between the mean running distance on the reference date (30 weeks old) and the mean running distance in each test is also shown in FIG. 13.

[5] = relative to SVVYGLR (SEQ ID NO.: 1); earlier work of the inventors; cited from earlier work
fibroblasts = conditions: see Patent Document 1; cited from earlier work
[6] = tested on: aging-accelerated model mice; assay: Endurance evaluation test on treadmill (Example 5); format: in vivo; conditions: SV group
Description: In this example, the training schedule and SV peptide administration concentration were changed from Example 4, and exercise evaluation (endurance evaluation) was conducted in aging-accelerated model mice when SV peptide was continuously administered. In addition, the cross-sectional area of muscle fibers (gastrocnemius (type I, type IIa, type IIb), extensor digitorum longus, and tibialis anterior muscles) were evaluated in mice that continued training and SV peptide administration until 51 weeks of age.
Aging-accelerated model mice were trained on a treadmill (MK-680; Muromachi Kikai Co., Ltd.) (18 m/min×90 min) and subsequent SV peptide administration was performed according to the schedule in the following table. 30 weeks of age and thereafter, training was performed continuously from Monday to Friday of each week. SV peptide was added to PBS to adjust to a concentration of 1 μg/ml for an injection formulation and localized to the bilateral leg muscles of each mouse anesthetized by inhalation with sevoflurane immediately after training on Tuesday and Friday (SV group; twice weekly administration). Exercise evaluations were performed every other Friday.
Exercise evaluation was performed by endurance assessment, in which the belt speed on the treadmill was increased stepwise at regular intervals. The elapsed time and belt speed increase used for the endurance evaluation test were the same as in Example 4. In the PBS group as a control group, PBS was injected into the bilateral leg muscles instead of SV peptide after training on the treadmill in the same manner as in the SV group.
The results of the endurance evaluation test are shown in FIG. 7 as a graph showing the difference between the mean running distance on the reference date (30 weeks of age) and the mean running distance in each test.
The results of the endurance evaluation test are also shown in FIG. 8 as a graph showing the difference between the mean speed on the reference day and the mean speed on each test day. The mean speed for each group was calculated as the mean of the highest speeds reached by each mouse in each group (mean speeds were calculated in the same manner hereinafter).

Substance: SVVYGLR [SV peptide, peptide consisting of 7 amino acids (SVVYGLR]
- mean running distance compared to the reference date ([1]; SV group (training and SV peptide), during the measurement period, reference date 30 weeks): increased compared to that at the reference date
- rate of change of the mean running distance ([1]; SV group (training performed and SV peptide injected, 1 μg/ml or 20 ng/ml, 2 times/W), mean running distance at 30 weeks (reference date) = 100%, FIG. 5): about 130%
- mean running distance over time ([1]; SVN group: SV peptide at same site and dose without training on the treadmill, not shown in the figure): decreased over time
- rate of change in mean running distance ([1]; SVN group: SV peptide without training on the treadmill, since the reference date (30 weeks = 100%)): ≤ 100%
- mean cross-sectional area of fast muscle fibers (gastrocnemius muscle) [2]: significantly higher than in the control group
- mean cross-sectional area of slow muscle fibers (soleus muscle) [2]: significantly higher than in the control group
- mean workload [3]: higher workload relative to the PBS group
- mean running distance ([4]; after 49 weeks of age): able to maintain the same mean running distance as the 30-week-old group
- mean running distance ([4]; from 31 to 48 weeks of age, FIGS. 12 and 13): increased significantly
- angiogenic effect [5]: promoting angiogenesis
- type III collagen production-promoting effect / type III collagen secretion (fibroblasts): promoting
- decrease in the mean running distance during the test period ([6]; 1 μg/ml twice weekly plus training, relative to the PBS group, FIG. 7): able to suppress the decrease in the mean running distance
- decrease in mean speed during the test period ([6]; 1 μg/ml twice weekly plus training, relative to the PBS group, FIG. 8): able to suppress the decrease in mean speed
- mean speed (mean of highest speeds reached) relative to reference day ([6]; 1 μg/ml twice weekly plus training, test from 31 to 39 weeks of age, FIG. 8): increased continuously
- mean running distance relative to the reference date (30 weeks of age) ([6]; SV peptide 1 μg/ml twice weekly plus training, tests at 31 to 41 weeks of age, FIG. 7): increased from the reference date
